From EPA's ToxValDB 9.5 (doi:10.2903/j.efsa.2009.192r)
≈ marks a conversion by molar mass, not a printed value.

Tests used:
[1] = tested on: Daphnia magna; settings: chronic/long-term; duration: 21 days; reproduction
[2] = tested on: Folsomia candida; settings: chronic/long-term; duration: 28 days
[3] = tested on: Tagia sp.
[4] = tested on: Rattus norvegicus
[5] = tested on: Anas platyrhynchos; settings: for LD50: oral, mortality
[6] = tested on: Colinus virginianus; settings: acute, oral, mortality
[7] = tested on: Canidae; settings: oral, Dog Other, clinical signs
[8] = tested on: Oncorhynchus mykiss
[9] = tested on: Apis mellifera; settings: acute; duration: 48 hours; dermal; mortality

CCc1nn(C)c(C(=O)NCc2ccc(C(C)(C)C)cc2)c1Cl [Tebufenpyrad]
NOEC [1]: 0.0024 mg/L
NOEC [2]: 9.38 g/ha
LC50 ([3]; acute, duration: 14 days, mortality): 41 mg/kg
NOEC ([3]; chronic/long-term): 0.66 mg/kg
LD50 ([4]; acute, oral, M/F, Fischer 344, mortality): 320 mg/kg-day
NOEL ([4]; chronic, body weight): 8.4 mg/kg-day
NOAEL ([4]; chronic, duration: 2 years, oral, diet, organ weight): 0.8 mg/kg-day
NOAEL ([4]; reproduction developmental, reproduction): 15.3 mg/kg-day
NOAEL ([4]; subchronic, duration: 90 days, oral, organ weight): 0.7 mg/kg-day
LD50 ([5]; acute, unspecified): > 2000 mg/kg-day
NOEL ([5]; reproductive): 6.6 mg/kg-day
LD50 ([5]; short-term, feed): > 75 mg/kg-day
LD50 ([6]; diet): > 439 mg/kg-day
LD50 [6]: > 2000 mg/kg-day
NOAEL ([7]; chronic, duration: 1 years): 2 mg/kg-day
NOAEL ([7]; subchronic, duration: 90 days): 2 mg/kg-day
LC50 ([8]; acute, duration: 96 hours, mortality): 0.03 µg/mL (≈ 0.0899 µM)
NOEC ([8]; chronic/long-term, duration: 94 days): 0.00245 mg/L
LD50 [9]: > 6.7 µg/piece
